Reference: patent US7326710B2, “Aralkyl formyl-alkyl piperazine derivatives and their uses as a cerebral nerve protective agent” (Shanghai Institute of Pharmaceutical Industry, priority 2002, dated 2008)
Read-outs that look alike come from different tables or passages of the source. Marks after values point to notes of the source that are not given here.

Columns and labels:
[1] = tested on: focal cerebral ischemia in rats; assay: Temporary occlusion of the right MCA in rats caused by suture; type: in vivo; conditions: for Percent of volume (Means ± SEM) / Percent of infarct (%) (Means ± SEM): rats; for Percent of volume (Means ± SEM): length of ischemia 6 hr
From the text: b. Temporary occlusion of the right MCA in rats caused by suture.

[2] = tested on: focal cerebral ischemia in rats; assay: Focal brain injury, occlusion of MCA induced by photochemical reaction; type: in vivo
Experimental: a. Focal brain injury caused by photochemical induction of occlusion of the artery:
The percentage of infarction was lowered by 52% at 24 hours after operation.

cerebral anoxia in mice = assay: Anoxic anoxia experiment in mice (closed wide-mouth bottles with soda lime); type: in vivo, Male Kunming mice; conditions: for ED50: Mus musculus, sc, survival time in anoxic anoxia
Experimental: Methods: Male Kunming mice were divided into 8 groups, 12 mice for each group. One group is injected subcutaneously with saline ([…], sc), other groups with ACEA1021 (NMDA receptor antagonist under clinical trial) or IV-23. 30 minutes after administration, the animals were put separately into wide-mouth bottles with soda lime, which more quickly closed. The survival time for each mice was recorded, and the group average of survival time was calculated and compared with the saline group.

[3] = tested on: focal cerebral ischemia in rats; assay: Focal cerebral ischemia in rats by occlusion of middle cerebral artery (MCA); type: in vivo; conditions: 20 mg/kg p.o.
Experimental: The focal ischemia rat model by occlusion of middle cerebral artery (MCA) was used to determine the protective effects of the compounds on focal cerebral ischemia. The infarct size after focal cerebral ischemia and the weight percentage of cerebral hemisphere were calculated to evaluate the compounds' effects on focal cerebral ischemia.

[4] = tested on: anoxia induced by sodium nitrite in mice; assay: Anti-cerebral anoxia in mice, anoxia induced by sodium nitrite; type: in vivo; conditions: Mus musculus, sc, mice; sodium nitrite 225 mg/kg ip; compound 20 mg/kg sc; read-out: Prolonging the survival duration (%)
Experimental: The rates of the prolongation of 9 compounds (IV-2, 10, 23, 32, 34, 36, 39, 40, 41) were more than 50%, which indicated the effect of anti-cerebral anoxia. IV-23 and IV-2 prolonged the survival duration by 100% of the animals, showing remarkably protective action for cerebral anoxia. (Table 3)
One model was established to test the time needed for mice to die because of anoxia caused by sodium nitrite (225 mg/kg, ip). IV-23 (20 mg/kg, sc) can prolong the time for 100%, indicating significant anti-cerebral anoxic anoxia activity.

Acute toxicity = conditions: mouse, in vivo, mice, read-out: LD50 (95% confidence limit)
Ames test = type: cell-based
From the text: The Ames test of IV-23 was negative.

[5] = tested on: global cerebral ischemia-reperfusion injury in rats; assay: Global cerebral ischemia-reperfusion in rats, four arteries reversible occlusion; type: in vivo
From the text: The effect of IV-23 on cerebral ischemia-reperfusion in rats was studied using four arteries reversible occlusion by measuring the recovering time of the electroencephalogram and the righting reflex (a short time indicates a strong effect).

rodent = assay: Rodent microkernel experiment; conditions: in vivo
From the text: The rodent microkernel experiment of IV-23 was negative.

mammalian cultural cell = assay: Chromosome aberration trial in mammalian cultural cell; type: cell-based
From the text: The chromosome aberration trial in mammalian cultural cell was negative.

[6] = tested on: focal cerebral ischemia in rats; assay: Focal cerebral infarction, electrical coagulation to occlude MCA; type: in vivo; parameters: The neurological deficit score After the operation / The neurological deficit score 24 h: scale not given here
[7] = tested on: rats platelet aggregation induced by ADP; assay: Platelet aggregation induced by ADP; type: cell-based; conditions: concentration 1×10^−4M
[8] = tested on: primary culture of rat cerebral cortical neuronal cells; assay: Protective effect on neurons damaged with NMDA, LDH activity; type: cell-based; conditions: NMDA 1 mmol/L
From the text: Primary culture of rat cerebral cortical neuronal cells were used. […] This is further evidence that IV-23 is a new NMDA receptor antagonist, and has anti-cerebral ischemic injury functions as well.

NMDA receptor [9] = assay: Whole-cell patch clamp, current induced by NMDA in isolated rat CA1 pyramidal neuron; type: cell-based; conditions: NMDA 100 μm, n=4, read-out: IC50, inhibition of the electric current induced by NMDA
Experimental: Methods: The whole-cell patch-clamp technique. Separate the rat's hippocampi, slash the brain piece into 500 μm thick. Get the CA1 area of hippocampi, put it into artificial cerebral spinal fluid (ACSF) to incubate for more than 1 hour. Then the solution is oxygen saturated. After the incubation of the brain piece, put it into ACSF with protease XIII (1 mg/ml) for 5 minutes. Using trypsin inhibitor type II-S (3 mg/ml) to terminate the protease digestion, and then using test tube to break the brain piece to obtain free cells, let it stand for a while and then start the experiment.
The electro-physiological experiment used the technique of whole-cell patch-clamp. The amplifier in the experiment is Axon-200A patch-clamp amplifier, with the DigiData-1200A as a sampling port. The software used is AxoScope Version 1.0. The experiment uses as a standard the electric current generated by the whole-cell. The effect of various samples on the electric current was observed. IC50 was determined by proportion of different concentrations to the electric current of NMDA.

[10] = tested on: focal cerebral ischemia in rats; assay: Focal cerebral infarction, electrical coagulation to occlude MCA; type: in vivo; parameters: The neurological deficit score After the operation / The neurological deficit score 24 h: scale not given here; remark: listed apart in the source
Experimental: a. The Focal Cerebral-Infarction of Using Electrical Coagulation to Occlude MCA:
For the 5 mg/kg group, the percentage of the rat's infarct size was decreased, but the difference is not significant (p=0.098). The effect is not significant for the Nimodipine mg/kg.

NMDA receptor [11] = assay: Maximum contraction of isolated guinea pig longitudinal ileum muscle preparations induced by L-Glu; conditions: compound 10^−5M; contraction induced by L-Glu
From the text: According to the literature (Luzzi, Br J Pharmacol, 95:1271, 1988), maximum contraction of isolated longitudinal ileomuscle preparations of guinea pig induced by L-Glu, were used to examine the activities of the compounds on the NMDA receptor.

With `O=c1[nH]c2cc(Cl)c(Cl)c([N+](=O)[O-])c2[nH]c1=O` [ACEA-1021, reference compound] the “Percent of volume (Means ± SEM)” value ([1]; 10 mg/kg) was 12.73 ± 1.24%, the “Necrotic percent (%)” value ([2]; rats, 2 mg/kg) was 17 ± 2 % and the “Score of praxiology After operation” value ([2]; rats, 2 mg/kg) was 9.5 ± 0.5. The “Weight of necrotic area” value ([2]; rats, 2 mg/kg) was 0.12 ± 0.02 g, the “Score of praxiology 24 h” value ([2]; rats, 2 mg/kg) was 7.1 ± 1.9 and the “Average survival time (min)(means ± S.E.M.)” value (from here on “Average survival time”) (cerebral anoxia in mice; 2.5 mg/kg sc) was 17.33 ± 1.18 min. The “Average survival time” value (cerebral anoxia in mice; 5 mg/kg sc) was 18.20 ± 0.82 min, the “Average survival time” value (cerebral anoxia in mice; 10 mg/kg sc) was 19.47 ± 1.17 min and the “Average survival time” value (cerebral anoxia in mice; 20 mg/kg sc) was 20.04 ± 1.38 min. It also gave an ED50 (cerebral anoxia in mice) of 29.2 mg/kg.

With `O=C(CN1CCN(S(=O)(=O)Cc2ccc(F)cc2F)CC1)c1ccccc1` [IV-22, N^1-phenacyl-N^4-(2,4-difluorobenzylsulfonyl) piperazine] the “Infarct volume” value [3] was 0.10 ± 0.02 g, the “Neurological deficit After operation” value [3] was 9.6 ± 0.9 and the “Neurological deficit 24 h” value ([3]; 24 h after operation) was 7.4 ± 2.4. The ILS at 20 mg/kg [4] was 26%.

With `O=C(CN1CCN(CC(=O)c2ccccc2)CC1)NCc1ccccc1` [IV-23, N^1-phenacyl-N^4-[2-(benzylamino)-2-oxo-ethyl] piperazine] the LD50 (Acute toxicity; iv, i.v.) was 133 mg/kg, the LD50 (Acute toxicity; po, p.o.) was 856 mg/kg and the Ames test (Ames test) was “negative”. For the same molecule, the “reduce the volume (of cerebral infarction) by” value ([1]; 5 mg/kg, after 3 hours of ischemia) was 46.3%, the “Percent of volume (Means ± SEM)” value ([1]; 2.5 mg/kg) was 15.42 ± 1.71% and the “Percent of volume (Means ± SEM)” value ([1]; 5 mg/kg) was 12.90 ± 1.11%. For the same molecule, the “Percent of infarct (%) (Means ± SEM)” value ([1]; 5 mg/kg, time of occlusion 1 hr) was 1.31 ± 0.50%, the “Percent of infarct (%) (Means ± SEM)” value ([1]; 5 mg/kg, time of occlusion 3 hr) was 8.57 ± 1.42% and the “Percent of infarct (%) (Means ± SEM)” value ([1]; 5 mg/kg, time of occlusion 6 hr) was 12.90 ± 1.11%. For the same molecule, the “Percent of volume (Means ± SEM)” value ([1]; 10 mg/kg) was 14.92 ± 1.40%, the “percentage of infarction lowered by” value ([2]; compared with vehicle (saline), 24 hours after operation) was 52% and the “Necrotic percent (%)” value ([2]; rats, 2 mg/kg) was 11 ± 3***^ΔΔΔ %. For the same molecule, the “Score of praxiology After operation” value ([2]; rats, 2 mg/kg) was 9.6 ± 0.5, the “Weight of necrotic area (g)” value ([2]; rats, 2 mg/kg) was 0.08 ± 0.02***^ΔΔΔ g and the “Score of praxiology 24 h” value ([2]; rats, 2 mg/kg) was 5.4 ± 1.9***^Δ. The “Time for electroencephalogram to disappear(S)” value ([5]; High-dose (20 mg/kg ip)) was 566.3 ± 430.3^*Δ S, the “Time for electroencephalogram to recover (S)” value ([5]; High-dose (20 mg/kg ip)) was 70.3 ± 20.1^***ΔΔΔ S and the “Time for righting reflex to recover (S)” value ([5]; High-dose (20 mg/kg ip)) was 147.0 ± 123.1^*ΔΔΔ S. The “Time for electroencephalogram to disappear(S)” value ([5]; Low-dose (5 mg/kg ip)) was 275.5 ± 338.1^*Δ S, the “Time for electroencephalogram to recover (S)” value ([5]; Low-dose (5 mg/kg ip)) was 184.6 ± 214.1^***ΔΔΔ S and the “Time for righting reflex to recover (S)” value ([5]; Low-dose (5 mg/kg ip)) was 550.0 ± 282.5^*ΔΔΔ S. For the same molecule, the “Time for electroencephalogram to disappear(S)” value ([5]; Middle-dose (10 mg/kg ip)) was 557.1 ± 639.4^*Δ S, the “Time for electroencephalogram to recover (S)” value ([5]; Middle-dose (10 mg/kg ip)) was 334.3 ± 674.3^***ΔΔΔ S and the “Time for righting reflex to recover (S)” value ([5]; Middle-dose (10 mg/kg ip)) was 822.8 ± 741.9^*ΔΔ S. The rodent microkernel experiment (rodent) was “negative”, the “Average survival time” value (cerebral anoxia in mice; 10 mg/kg sc) was 16.46 ± 0.89 min and the “Average survival time” value (cerebral anoxia in mice; 20 mg/kg sc) was 17.11 ± 0.53 min. The “Average survival time” value (cerebral anoxia in mice; 40 mg/kg sc) was 19.26 ± 0.91 min, the “Average survival time” value (cerebral anoxia in mice; 80 mg/kg sc) was 20.04 ± 1.56 min and the ED50 (cerebral anoxia in mice) was 6.2 mg/kg. For the same molecule, the chromosome aberration trial (mammalian cultural cell) was “negative”, the “The neurological deficit score 24 h” value ([6]; High-dose (20 mg/kg)) was 6.7 ± 2.6 and the “The neurological deficit score After the operation” value ([6]; High-dose (20 mg/kg)) was 9.7 ± 0.5. For the same molecule, the “The percentage of infarction (%)” value ([6]; High-dose (20 mg/kg)) was 14.2 ± 6.8 %, the “The weight of infarct area” value ([6]; High-dose (20 mg/kg)) was 0.11 ± 0.05 g and the “The percentage of infarction (%)” value ([6]; middle-dose (10 mg/kg)) was 13.4 ± 8.4 %. For the same molecule, the “The weight of infarct area” value ([6]; middle-dose (10 mg/kg)) was 0.10 ± 0.06 g, the “inhibition of platelet aggregation induced by ADP” value [7] was “did inhibit” and the “LDH activities (U/g protein) (mean ± SEM)” value ([8]; Concentration 10) was 1.86 ± 0.20 U/g protein. The “Protective rate (%)” value ([8]; Concentration 10) was 0%, the “LDH activities (U/g protein) (mean ± SEM)” value ([8]; Concentration 50) was 1.23 ± 0.14 U/g protein and the “Protective rate (%)” value ([8]; Concentration 50) was 48.1%. For the same molecule, the “LDH activities (U/g protein) (mean ± SEM)” value ([8]; Concentration 100) was 1.05 ± 0.16 U/g protein, the “Protective rate (%)” value ([8]; Concentration 100) was 65.1% and the “LDH activities (U/g protein) (mean ± SEM)” value ([8]; Concentration 200) was 0.79 ± 0.19 U/g protein. The “Protective rate (%)” value ([8]; Concentration 200) was 89.6%, the IC50 (NMDA receptor [9]) was 562.7 ± 1.1 µM and the “The neurological deficit score 24 h” value ([10]; Low-dose (5 mg/kg)) was 8.1 ± 2.0. The “The neurological deficit score After the operation” value ([10]; Low-dose (5 mg/kg)) was 9.7 ± 0.5, the “The percentage of infarction (%)” value ([10]; Low-dose (5 mg/kg)) was 20.8 ± 8.8 % and the “The weight of infarct area” value ([10]; Low-dose (5 mg/kg)) was 0.15 ± 0.06 g. For the same molecule, the “The neurological deficit score 24 h” value ([10]; middle-dose (10 mg/kg)) was 5.6 ± 2.7, the “The neurological deficit score After the operation” value ([10]; middle-dose (10 mg/kg)) was 9.6 ± 0.5 and the “antagonism % (restrain rate of contraction of preparations)” value (NMDA receptor [11]) was 40%. The “Infarct volume” value [3] was 0.057 ± 0.012 g and the “Neurological deficit After operation” value [3] was 9.4 ± 1.5.
